In patent publication US20040048260A1, “Transfection of nucleic acid” (priority 2002, published 2004):

Legend:
HeLa cells [1] = assay: Transfection of HeLa cells with EGFP plasmid on coated 96-well plates; format: cell-based; settings: 24 hr
Text: The coated plates prepared in Example 1 were used to transfect HeLa cells with an expression plasmid encoding Enhanced Green Fluorescent Protein (EGFP; purchased from Clontech, Inc., Palo Alto, Calif.). […] Before transfection, 1×10^6 HeLa cells were harvested and resuspended in 5 milliliters of the complete medium described in Example 1. 1 microgram of the EGFP plasmid was mixed with the cells. The mixture was subsequently placed into the coated plates (about 5,000 cells per well). After the cells had grown on the plates for 24 hr, pictures were taken under a fluorescent microscope.
Standard 96-well plates were coated with polyethylenimine […], a cationic polymer. More specifically, PEI (MW 25,000 Daltons) was purchased from Sigma-Aldrich (St. Louis, Mo.) and dissolved in deionized water to reach a concentration of 10 mg/ml. Each PEI solution was passed through a 0.45-micrometer filter membrane. This filtrate was used as the PEI stock solution and stored at 4° C. To coat the plates, the stock solution was diluted with sterile deionized water to 20 microgram/ml and a 10-microliter aliquot was added to each well of 96-well plates. The plates were dried and stored in the manner as described in Example 1.
To conduct transfection, HeLa cells were mixed with the EGFP plasmid in the complete medium described in Example 1 and placed onto the PEI-coated plates. […]

[2] = Stability of DOTAP coating on 96-well plates under complete medium, examined by microscope; format: physicochemical
Experimental: (§1) Standard 96-well plates were coated with 1,2 bis(oleoyloxy)-3-(trimethylammonio)propane (DOTAP; purchased from Avanti, Alabaster, Ala.), a cationic lipid. More specifically, 50-microliter aliquots of 2.5 nM, 5 nM, 10 nM, 40 nM, 60 nM, and 80 nM DOTAP methanolic solutions were added to the wells of six sets of the 96-well plates respectively. The plates were then dried overnight in a vacuum-drier and stored in a dessicator until use.
In one experiment, 100 microliters of a complete medium (i.e., RPMI medium containing 10% fetal calf serum, 50 units ml^−1 penicillin, and 50 micrograms ml^−1 streptomycin) was added to each well of the coated plates. The coated surfaces and the overlaying medium were then examined under a microscope at 6-hr intervals for 24 hr.

[3] = system: fluorescent-labeled oligonucleotide; assay: Capture of fluorescent-labeled oligonucleotide by coated plates (fluorescent microscope); format: binding; settings: 0.1 microgram oligonucleotide per well in 100 microliters complete medium
Experimental: as §1
In another experiment, 0.1 microgram of fluorescent-labeled oligonucleotide was added to each well of the coated plates containing 100 microliters of the above-mentioned medium. The plates were then observed under a fluorescent microscope. The fluorescence was detected only on the coated surfaces but not in the medium.

HeLa cells [4] = assay: Transfection of HeLa cells with EGFP plasmid on glass slides tethered with DOTAP or PEI; format: cell-based; settings: HeLa cells on glass slides printed with gelatin or chitosan and tethered coating, 24 hours
Experimental: Glass slides were tethered with DOTAP or PEI and used to transfect HeLa cells.
More specifically, borosilicate glass slides (VWR Scientific, Media, Pa.) were cleaned with Linbro 7× detergent (ICN Biomedicals, Inc., Aurora, Ohio), diluted 1:3 (v/v) in deionized water, and baked at 450° C. for 4 hr. The slides were then printed with gelatin or chitosan by microcontact printing using polydimethylsiloxane (PDMS; Sylgard 184; Dow Corning, Midland, Mich.) elastomer stamps. See Kam L. et al., J Biomed Mater Res. 55: 487-495 (2001). One milliliter of 10 nM DOTAP solution and 20 microgram/ml PEI solutions were respectively overlaid onto two set of slides for one minute. The slides were then briefly rinsed with Dulbecco's modified Eagle's medium (DMEM; Gibco BRL, Great Island, N.Y.) before use.
HeLa cells were mixed with the EGFP plasmid and seeded onto slides that were placed in 100 mm cell culture dishes containing the above-mentioned complete medium.

CCCCCCCC/C=C\CCCCCCCC(=O)OCC(C[N+](C)(C)C)OC(=O)CCCCCCC/C=C\CCCCCCCC (stereo not drawn) [DOTAP, 1,2 bis(oleoyloxy)-3-(trimethylammonio)propane]
cell shape / spreading on the coated plates (HeLa cells [1]; HeLa cells, microscopic views): spread unexpectedly well
cells expressing GFP / transfected (of total HeLa cells) (HeLa cells [1]; coated 96-well plates, fluorescent microscope, PEI density greater than 0.3 microgram/cm^2): more than 80%
liposome-like particles on the coated surfaces or in the medium ([2]; complete medium, 24 hr, all plates): no liposome-like particles were found
change of coated surfaces under complete medium ([2]; plates coated with 2.5-80 nM DOTAP solutions, examined at 6-hr intervals for 24 hr): no difference
capture of nucleic acid (location of fluorescence) [3]: effectively capture nucleic acid
cells found to express GFP (HeLa cells [4]): 80%
